This passage reports AC50 results from patent publication US12673961B2 (Agios Pharmaceuticals, Inc., priority 2022, dated 2026).

The first test deals with T1, human PAH with the R408W mutation (Homo sapiens, UniProt P00439, R408W).
T1 construct: expressed in transfected cells
T1 sequence (P00439 1-452 R408W): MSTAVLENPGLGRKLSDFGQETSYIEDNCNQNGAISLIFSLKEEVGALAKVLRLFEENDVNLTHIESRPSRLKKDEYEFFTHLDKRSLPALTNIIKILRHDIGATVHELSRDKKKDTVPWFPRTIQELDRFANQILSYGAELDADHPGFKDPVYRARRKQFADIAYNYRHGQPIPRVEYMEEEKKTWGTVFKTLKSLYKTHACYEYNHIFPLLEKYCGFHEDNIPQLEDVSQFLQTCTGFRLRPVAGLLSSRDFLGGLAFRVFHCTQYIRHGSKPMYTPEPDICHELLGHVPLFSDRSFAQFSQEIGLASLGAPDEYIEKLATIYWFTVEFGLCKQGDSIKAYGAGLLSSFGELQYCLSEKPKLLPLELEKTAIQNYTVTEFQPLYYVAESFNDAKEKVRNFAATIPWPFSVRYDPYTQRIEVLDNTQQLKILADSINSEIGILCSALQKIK
The test is described as follows: Cell Based Phenylalanine Flux Assay.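 Further: Ten-point dose curve from 2-fold serial dilutions, run in duplicate at 0.5% DMSO final, tracer step used 20 µM sepiapterin and 800 µM labeled phenylalanine.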 Set-up: scale not given here. The conditions noted are these: A375 cells expressing R408W PAH; 24 hrs with compound, then 20 μM sepiapterin and 800 μM 13C9,15N-Phenylalanine for 4 hours; 13C-Tyrosine in media by LC-MS; average where tested multiple times.
For `COc1cccn2nc(C3c4nc[nH]c4CCN3C(=O)c3ccnn3C3CC3)cc12` (stereo not shown), the AC50 entry is on record as “E, E”.

Still in this test, the particulars now being: A375 cells expressing R408W PAH; 24 hrs with compound, then 20 μM sepiapterin and 800 μM 13C9,15N-Phenylalanine for 4 hours; 13C-Tyrosine in media by LC-MS; average where tested multiple times; read-out: AC50.
As to `Cc1nnc(C(=O)N2CCc3[nH]cnc3C2c2nn3ccccc3c2C)o1` (single isomer, unassigned), the AC50 is 1 to 5 µM.

Regarding `Cn1ccc(-c2nnc(C(=O)N3CCc4[nH]cnc4[C@H]3c3cc4cc(C(F)(F)F)ccn4n3)o2)n1` (single isomer, unassigned), the concentration at half-maximal activity (AC50) is 1 to 5 µM. Still for that read-out and setting: under `Cc1c(-c2ncc(C(=O)N3CCc4[nH]cnc4[C@H]3c3cc4ccccn4n3)o2)cnn1C` (single isomer, unassigned) stands 1 to 5 µM.

For the molecule `Cc1nnc(C(=O)N2CCc3[nH]cnc3[C@@H]2c2cc3cccc(C)n3n2)o1` (single isomer, unassigned), the concentration at half-maximal activity (AC50) was above 5 µM.

Still in this test, the particulars now being: A375 cells expressing human R408W PAH; 24 hrs compound incubation; 13C-Tyrosine by LC-MS; average where tested multiple times; read-out: AC50.
In the case of `CC(C)(C#N)c1nc(C(F)F)c(C(=O)N2CCc3[nH]cnc3[C@@H]2c2cc3ccccn3n2)o1` [Example 698, (R)-2-(4-(difluoromethyl)-5-(4-(pyrazolo[1,5-a]pyridin-2-yl)-4,5,6,7-tetrahydro-1H-imidazo[4,5-c]pyridine-5-carbonyl)oxazol-2-yl)-2-methylpropanenitrile], the AC50 fell in the range of 1 to 5 µM. The same measure, in the same setting: under `Cc1ccc2cc([C@@H]3c4nc[nH]c4CCN3C(=O)c3oc(C(C)(C)O)nc3C(F)F)nn2c1` [Example 804] stands below 0.5 µM; under `CC(F)(F)c1ncc(C(=O)N2CCc3[nH]cnc3[C@@H]2c2cc3ccccn3n2)s1` [Example 613, (R)-(2-(1,1-difluoroethyl)thiazol-5-yl)(4-(pyrazolo [1,5-a]pyridin-2-yl)-6,7-dihydro-1H-imidazo[4,5-c]pyridin-5(4H)-yl)methanone], 1 to 5 µM; under `Cc1cccn2nc([C@@H]3c4nc[nH]c4CCN3C(=O)c3nnc(-c4cn(C)cn4)o3)cc12` [Example 806, (S)-(5-(1-methyl-1H-imidazol-4-yl)-1,3,4-oxadiazol-2-yl)(4-(4-methylpyrazolo[1,5-a]pyridin-2-yl)-6,7-dihydro-1H-imidazo[4,5-c]pyridin-5(4H)-yl)methanone], 0.5 to 1 µM. The same measure, in the same setting: under `N#Cc1ncoc1C(=O)N1CCc2[nH]cnc2[C@@H]1c1cc2ccc(Cl)cn2n1` [Example 685, (R)-5-(4-(6-chloropyrazolo [1,5-a]pyridin-2-yl)-4,5,6,7-tetrahydro-1H-imidazo[4,5-c]pyridine-5-carbonyl) oxazole-4-carbonitrile] stands above 5 µM; under `O=C(c1nnc(-c2ccncn2)o1)N1CCc2[nH]cnc2[C@H]1c1cc2c(F)cccn2n1` [Example 1258, (S)-(4-(4-fluoropyrazolo[1,5-a]pyridin-2-yl)-6,7-dihydro-1H-imidazo[4,5-c]pyridin-5(4H)-yl)(5-(pyrimidin-4-yl)-1,3,4-oxadiazol-2-yl)methanone], 0.5 to 1 µM; under `Cc1ncoc1C(=O)N1CCc2[nH]cnc2[C@@H]1c1cc2cccc(Cl)n2n1` [Example 1175, (R)-(4-(7-chloropyrazolo [1,5-a]pyridin-2-yl)-6,7-dihydro-1H-imidazo[4,5-c]pyridin-5(4H)-yl)(4-methyloxazol-5-yl)methanone], 1 to 5 µM. The same measure, in the same setting: under `Cc1cc(F)ccc1-c1nnc(C(=O)N2CCc3[nH]cnc3[C@@H]2c2cc3ccccn3n2)o1` [Example 655, (R)-(5-(4-fluoro-2-methylphenyl)-1,3,4-oxadiazol-2-yl)(4-(pyrazolo [1,5-a]pyridin-2-yl)-6,7-dihydro-1H-imidazo[4,5-c]pyridin-5(4H)-yl)methanone] stands 1 to 5 µM.

Still in this test, the particulars now being: A375 cells expressing human R408W PAH; 24 hrs with compound, then sepiapterin and 13C9,15N-Phenylalanine for 4 hours; 13C-Tyrosine by LC-MS; average where tested multiple times; read-out: AC50.
Take `Cn1ccc(-c2ccc3c(C(=O)N4CCc5[nH]cnc5[C@H]4c4cc5ccccn5n4)cnn3c2)n1` [Example 1434, (S)-(6-(1-methyl-1H-pyrazol-3-yl)pyrazolo[1,5-a]pyridin-3-yl)(4-(pyrazolo [1,5-a]pyridin-2-yl)-6,7-dihydro-1H-imidazo[4,5-c]pyridin-5(4H)-yl)methanone]: the concentration at half-maximal activity (AC50) was in the range of 0.5 to 1 µM.

For `CC(C)c1cccn2nc([C@@H]3c4nc[nH]c4CCN3c3nnc(-c4cnccn4)o3)cc12` [Example 2177, (S)-2-(4-(4-isopropylpyrazolo [1,5-a]pyridin-2-yl)-1,4,6,7-tetrahydro-5H-imidazo [4,5-c]pyridin-5-yl)-5-(pyrazin-2-yl)-1,3,4-oxadiazole], the AC50 was 0.5 to 1 µM. On the same count and under the same terms, under `O=C(c1nnc(-c2ccn(C(F)(F)F)n2)o1)N1CCc2[nH]cnc2[C@@H]1c1cc2cccc(Cl)n2n1` [Example 1509, (R)-(4-(7-chloropyrazolo [1,5-a]pyridin-2-yl)-6,7-dihydro-1H-imidazo[4,5-c]pyridin-5(4H)-yl)(5-(1-(trifluoromethyl)-1H-pyrazol-3-yl)-1,3,4-oxadiazol-2-yl)methanone] stands above 5 µM; under `Cc1cccn2nc([C@H]3c4nc[nH]c4CCN3C(=O)c3oc(-c4cnn(C)c4)nc3C3CC3)cc12` [Example 2075], 1 to 5 µM; under `O=C(c1cnn2cc(C3CC3)ccc12)N1CCc2[nH]cnc2[C@@H]1c1cc2c(F)cccn2n1` [Example 1673, (R)-(6-cyclopropylpyrazolo [1,5-a]pyridin-3-yl)(4-(4-fluoropyrazolo[1,5-a]pyridin-2-yl)-6,7-dihydro-1H-imidazo[4,5-c]pyridin-5(4H)-yl)methanone], above 5 µM. The same measure, in the same setting: the figure for `Fc1cccn2nc([C@@H]3c4nc[nH]c4CCN3c3ncc(C(F)(F)F)cn3)cc12` [Example 1778, (S)-4-(4-fluoropyrazolo [1,5-a]pyridin-2-yl)-5-(5-(trifluoromethyl)pyrimidin-2-yl)-4,5,6,7-tetrahydro-1H-imidazo[4,5-c]pyridine] is below 0.5 µM.

Regarding `Cn1cc(-c2nnc(C(=O)N3CCc4[nH]cnc4[C@H]3c3cc4cccc(C(F)F)n4n3)o2)cn1` [Example 1406, (S)-(4-(7-(difluoromethyl)pyrazolo[1,5-a]pyridin-2-yl)-6,7-dihydro-1H-imidazo [4,5-c]pyridin-5(4H)-yl)(5-(1-methyl-1H-pyrazol-4-yl)-1,3,4-oxadiazol-2-yl)methanone], the AC50 was below 0.5 µM. The same measure, in the same setting: under `O=C(c1nnc(-c2cnn(C(F)(F)F)c2)o1)N1CCc2[nH]cnc2[C@H]1c1cc2cccc(C(F)(F)F)n2n1` [Example 2428, (S)-(5-(1-(trifluoromethyl)-1H-pyrazol-4-yl)-1,3,4-oxadiazol-2-yl)(4-(7-(trifluoromethyl)pyrazolo[1,5-a]pyridin-2-yl)-6,7-dihydro-1H-imidazo[4,5-c]pyridin-5(4H)-yl)methanone] stands 1 to 5 µM; under `Cc1cccc(-c2nnc(C(=O)N3CCc4[nH]cnc4[C@H]3c3cc4c(C)cccn4n3)o2)n1` [Example 1429, (S)-(4-(4-methylpyrazolo [1,5-a]pyridin-2-yl)-6,7-dihydro-1H-imidazo[4,5-c]pyridin-5(4H)-yl)(5-(6-methylpyridin-2-yl)-1,3,4-oxadiazol-2-yl)methanone], below 0.5 µM. As for `CC(C)(C)c1ncc(C(=O)N2CCc3[nH]cnc3[C@H]2c2cc3c(F)cccn3n2)o1` [Example 2100, (S)-(2-(tert-butyl)oxazol-5-yl)(4-(4-fluoropyrazolo[1,5-a]pyridin-2-yl)-1,4,6,7-tetrahydro-5H-imidazo[4,5-c]pyridin-5-yl)methanone], the AC50 is below 0.5 µM. Still for that read-out and setting: the figure for `Cc1cccc2cc([C@H]3c4nc[nH]c4CCN3C(=O)c3nnc(-c4ccn(C(F)(F)F)n4)o3)nn12` [Example 1511, (R)-(4-(7-methylpyrazolo [1,5-a]pyridin-2-yl)-6,7-dihydro-1H-imidazo[4,5-c]pyridin-5(4H)-yl)(5-(1-(trifluoromethyl)-1H-pyrazol-3-yl)-1,3,4-oxadiazol-2-yl)methanone] is 1 to 5 µM. The same measure, in the same setting: the figure for `CCc1cccn2nc([C@@H]3c4nc[nH]c4CCN3C(=O)c3nnc(-c4ccn(C)n4)o3)cc12` [Example 1927, (S)-(4-(4-ethylpyrazolo [1,5-a]pyridin-2-yl)-1,4,6,7-tetrahydro-5H-imidazo[4,5-c]pyridin-5-yl)(5-(1-methyl-1H-pyrazol-3-yl)-1,3,4-oxadiazol-2-yl)methanone] is below 0.5 µM; for `CC(C)c1cccn2nc([C@H]3c4nc[nH]c4CCN3c3nnc(C4(C)CC4)o3)cc12` [Example 2228, (R)-2-(4-(4-isopropylpyrazolo [1,5-a]pyridin-2-yl)-1,4,6,7-tetrahydro-5H-imidazo [4,5-c]pyridin-5-yl)-5-(1-methylcyclopropyl)-1,3,4-oxadiazole] it is above 5 µM.

With `Cn1cc(-c2nc(C3CC3)c(C(=O)N3CCc4[nH]cnc4[C@H]3c3cc4c(C(F)F)cccn4n3)o2)cn1` [Example 2114, (S)-(4-cyclopropyl-2-(1-methyl-1H-pyrazol-4-yl)oxazol-5-yl)(4-(4-(difluoromethyl)pyrazolo[1,5-a]pyridin-2-yl)-1,4,6,7-tetrahydro-5H-imidazo[4,5-c]pyridin-5-yl)methanone], the AC50 lay within 0.5 to 1 µM.

Consider `Cc1ccc2c(C(=O)N3CCc4[nH]cnc4[C@H]3c3cc4c(C(F)F)cccn4n3)cnn2c1` [Example 1712, (S)-(4-(4-(difluoromethyl)pyrazolo[1,5-a]pyridin-2-yl)-6,7-dihydro-1H-imidazo [4,5-c]pyridin-5(4H)-yl)(6-methylpyrazolo[1,5-a]pyridin-3-yl)methanone], for which the AC50 lay in the range of 0.5 to 1 µM.
